# Source: patent US11285142B2, “Compositions and methods for identifying and treating dystonia disorders” (DUKE UNIVERSITY, priority 2015, dated 2022)
# Assays:
# [1] = test system: delta-E Torsin1a localization in Flp-In T-REx 293 cells expressing EGFP-delta-E Torsin1a; test: delta-E Torsin1a mis-localization assay (high-content imaging, % cells with EGFP puncta); assay type: cell-based, human
# Description: To limit variation in expression levels associated with random integration or transient expression, single copies of either WT or delta-E human TOR1A cDNAs with N-terminal EGFP fusions were inserted at the FRT site in Flp-In™ T-Rex™ 293 cells (Thermo Fisher Scientific #R780-07) via flippase recombinase-mediated cassette exchange according to the manufacturer's recommended protocols.
# The cells were maintained at 37° C./5% CO2. All experiments were performed on cells with fewer than 5 passages.
# Torsin1a expression was also controlled by tetracycline induction to avoid selective pressure modifying the cellular phenotypes. […] The mutant phenotype was measured as the percentage of cells with one or more EGFP puncta using automated high-content imaging analysis (see infra).
# The image analysis algorithm was developed using the Cellomics ArrayScan V CompartmentAnalysisV2 protocol. Hoechst's nuclear staining (Ch1: excitation 350 nm; emission 461 nm) was used for focusing and for cell identification by nuclear size, shape, and intensity. […] Detected cells were gated according to nuclear area, length-to-width ratio, and perimeter-to-area ratio. For the purpose of analysis, cell bodies were defined by a radius of 10 μm from the outer edge of the defined nucleus. Overlapping cells were automatically segmented according to the Cellomics ArrayScanV CompartmentAnalysisV2 object segmentation feature. EGFP fluorescence (Ch2: excitation 488 nm; emission 509 nm) was used for puncta detection. […] Torsin1a puncta were identified using the spot detection feature of the Compartmental AnalysisV2 protocol. The percentage of cells containing one or more puncta was used as the primary metric in this assay.
# (§1) In order to test this model directly, the delta-E Torsin1a cell line was treated with compounds targeting the eIF2-alpha signaling pathway (FIG. 2). […] The following day, serial drug dilutions were prepared at 2× final concentration in assay media containing 10 μg/mL tetracycline and 30 μL of the drug/tetracycline mixture was added to the appropriate wells, while control wells received 30 μL of assay media alone or assay media+10 μg/mL tetracycline (final tetracycline concentration for all wells except negative controls: 5 μg/mL). Cells were then incubated at 37° C./5% CO^2 for 48 hours and fixed, permeabilized, Hoechst stained, and imaged as described above. The range of the Torsin1a localization effect was normalized to the percentage of cells with puncta in vehicle-treated delta-E cell line as the maximum and that in WT cell line as the minimum (FIG. 2, panels c-h). Cell count and EGFP-Torsin1a expression were normalized to their respective values in the vehicle-treated delta-E cell line as the maximum. All dose response data are the average of 4 independent experiments per dose. Untreated control data used for normalization are the average of 24 independent experiments.
# [2] = Cytotoxicity (cell count, cellular morphology) in the Torsin1a assay cell line; assay type: cell-based, human; conditions: human
# Description: as §1
# (§2) Efficacy is calculated as the magnitude of the pathology correction relative to the mutant Torsin1a pathology. For example an efficacy=−100% would be equivalent to the WT TorsinA phenotype, and 0% would be equivalent to the Mutant TorsinA phenotype. CCv2 refers to the dose response Curve Class annotation, and AC refers to Active Concentration.
# [3] = test system: Flp-In T-REx 293 cells expressing delta-E Torsin1a; test: as above; assay type: cell-based, human
# Description: as §1, §2
# luciferase secretion = test: C.Luc. Secretion Assay (luciferase secretion, secretory deficits); assay type: cell-based
# Description: We tested each shRNA for its ability to rescue a previously described defect in luciferase secretion. Chen, P. et al. (2010) Hum. Mol. Genet. 19, 3502-15; Cao, S. et al. (2010) Dis. Model. Mech. 3, 386-96; Barrows, N. J., et al., (2010)J. Biomol. Screen. 15, 735-47.) DYT1 patient data were obtained from 4 independent patient-derived lines and WT data (black bar) from 3 normal healthy control lines. Each line was tested in 5 independent experiments that included 4 technical replicates each (with the exception of SCD data from 3 independent experiments).
# (Cao, S. et al. (2010) Dis. Model. Mech. 3, 386-96.) Subsequent testing of additional HIV protease inhibitors supported the activity of this class of compounds and generated favorable structure-activity relationship (SAR) data from which to design improved compounds (Tables 5 and 6). The results with a subset of compounds were also observed in a Luciferase secretion assay (Tables 5 and 6).
# CreP = test: Western blot of CreP in EGFP-delta-E Torsin1a assay cell line; assay type: cell-based, human; conditions: EGFP-ΔE Torsin1a cells, increasing concentration
# Description: (§3) Cells were harvested in RIPA buffer [150 mM NaCl/50 mM NaH2PO4/2 mM EDTA/l % Triton X-100/0.5% SDS/0.5% deoxycholic acid/50 mM NaF/10 mM Na4P2O7/1 mM Na3VO4/1× phosphatase inhibitor cocktail (Sigma #P5726)/1× cOmplete Mini EDTA-free protease inhibitor cocktail (Roche #04693159001)]. Total protein concentrations were assessed by BCA assay (Thermo Fisher Scientific #23225). Proteins were resolved on 4-15% TGX gels (Bio-Rad #5671085), transferred to nitrocelulose membrane, blocked in TBS-T+5% non-fat dry milk, and probed as indicated. (Primary antibodies employed in the examples of the disclosure are presented in Table 4.) ATF4 expression was normalized to […] expression. N=3 independent control cells lines and 4 independent DYT1 cell lines, 3 replicates each.
# (§4) Western blot analyses were conducted to determine the effect of Lopinavir on ATF4, CreP, pEIF2-alpha, and β-actin abundance in EGFP-ΔE Torsin1a expression assay cell lines. […] This down regulation of CreP is in keeping with the HIV protease inhibitor mediated CreP regulation. (See De Gassart et al. PNAS 2015.)
# EIF2-alpha = test: Western blot of phosphorylated eIF2-alpha in EGFP-delta-E Torsin1a assay cell line; assay type: cell-based, human; conditions: EGFP-ΔE Torsin1a cells, dose dependent
# Description: as §3, §4
# ATF4 = test: Western blot of ATF4 in EGFP-delta-E Torsin1a assay cell line; assay type: cell-based, human; conditions: EGFP-ΔE Torsin1a cells, dose dependent
# Description: as §3, §4
smiles,measurement,setting,value
"Cc1cccc(C)c1OCC(=O)N[C@@H](Cc1ccccc1)[C@@H](O)C[C@H](Cc1ccccc1)NC(=O)[C@H](C(C)C)N1CCCNC1=O [Lopinavir, lopinavir]",EC50,"[1]; Homo sapiens, Flp-In-T-REx-293, Table 5, read-out: ΔE TorsinA Mislocalization Assay Localization EC50",4.69 µM
same,Emax,"[1]; Homo sapiens, Flp-In-T-REx-293, Table 5, read-out: ΔE TorsinA Mislocalization Assay Localization Max Efficacy",70%
same,AC50,"[1]; Homo sapiens, Flp-In-T-REx-293, Table 6, AC = Active Concentration, read-out: % pathology AC50",4.69 µM
same,% pathology Max Resp,"[1]; Table 6, normalized scale, WT-TorsinA line 0%, DYT1 mutant line 100% pathology",−89.03%
same,% pathology Efficacy,"[1]; Table 6, normalized scale, −100% = WT TorsinA phenotype, 0% = Mutant TorsinA phenotype",−69.97%
same,effect on delta-E Torsin1a localization (in words),"[1]; delta-E cell line, dose response",corrected TorsinA localization in a dose-dependent fashion
same,EC50 at 48 h,"[2]; Flp-In T-REx 293 cells inducibly expressing delta-E Torsin1a, Table 5, read-out: ΔE TorsinA Mislocalization Assay Cytotoxicity EC50",37.2 µM
same,AC50,"[2]; Table 6, read-out: Cytotox AC50",37.2 µM
same,Cytotox CC-v2 (dose response Curve Class),[3]; Table 6,−3
same,Cytotox Efficacy,[3]; Table 6,−69.87
same,Cytotox Max Resp,[3]; Table 6,−55.19
same,"toxicity (cell count, cellular morphology; in words)",[3]; at effective concentrations,no cellular toxicity observed at effective doses
same,EC50,luciferase secretion; Table 5,0.98 µM
same,Emax,"luciferase secretion; Table 5, read-out: C.Luc. Secretion Assay Secretion Max Efficacy",177%
same,correction of secretory deficits (in words),luciferase secretion; orthogonal assays,corrected secretory deficits
same,CreP abundance (steady state levels),CreP,down-regulation of steady state levels
same,CreP abundance (steady state levels),CreP; listed as lopinavir,decreases CReP abundance
same,phosphorylation of EIF2-alpha,EIF2-alpha,increases phosphorylation of EIF2-alpha
same,ATF4 abundance,ATF4,increases phosphorylation of EIF2-alpha and ATF4 abundance
